# From patent US5739158A, “Nitrogen-containing cyclohetero cycloalkylaminoaryl derivatives for CNS disorders” (The United States of America as represented by the …, priority 1992, dated 1998)
# Where “and” joins values, the source holds several entries; their conditions need not be identical. Equal entries are not always repeated. Entries after “also recorded” stand apart in the source; their conditions may differ. Where two headings read alike, the source gives them in different places.
# How the values were obtained:
# NMDA receptor = settings: C. Carter et al, 1988; cited from earlier work
# sigma receptor = target: T1, sigma receptor (Rattus norvegicus, UniProt Q9R0C9); assay: Radioreceptor assay in rat brain homogenate, displacement of [3H]-(+)-3-PPP; type: binding; settings: for Ki: rat brain membranes, 2 nM [3H]-(+)-3-PPP, 1 hr, room temperature, units ± SEM, read-out: Ki apparent
# T1 construct: Brains from male Sprague-Dawley rats were homogenized; from tissue; host or cells: rat brain crude membranes (male Sprague-Dawley)
# Protocol: Acad. Sci., 83, 8784-8788, 1986] to determine the relative potency of the compounds interacting with the sigma receptor. To determine the effects of the compounds in a sigma receptor assay, crude membrane preparations were prepared as follows. Brains from male Sprague-Dawley rats were homogenized in 10 volumes (wt/vol) of 0.32M sucrose, using a Polytron grinder. The homogenate was centrifuged at 900×G for 10 minutes at 4° C. The supernatant was collected and centrifuged at 22,000×g for 20 minutes at 4° C. The pellet was resuspended in 10 volumes of 50 mM Tris/HCl buffer (pH 7.4) and centrifuged at 22,000×g for 20 minutes at 4° C. The pellet was resuspended in 5 mM Tris/HCl buffer (pH 7.4) to give a final concentration of 250 mg/ml of the crude material. Incubation tubes were prepared in triplicate and contained 0.1 ml of tissue suspension, 2 nM of [^3 H]-(+)-1-propyl-3-(3-hydroxyphenyl)piperidine {[^3 H]-3-(+)-PPP}, and varying concentrations of the displacing ligand (0.1-1000 nM) in a final volume of 0.5 ml. After a 1 hr incubation at room temperature, the contents of the test tubes were filtered through GS filter paper which had been presoaked for at least 2 hours in 0.05% polyethyleneamine. The test tubes were rinsed three times with Tris/HCl buffer. Radioactivity on the filters was determined and […] were calculated from inhibition curves using the method of Cheng and Prusoff [Biochem. Pharmacol., 22, 3099-3108, 1973].
# substantia nigra = assay: Circling behavior assay, intranigral microinjection; type: in vivo, rat; settings: for Net Turns (individual rat): individual subjects
# Protocol: In order to assess the utility of compounds of the invention in treatment of Parkinsonism, the ability of the compound to stimulate movement following microinjections in the substantia nigra was assessed. Parkinson's disease results from the degeneration of dopamine-secreting neurons in the substantia nigra resulting in a reduced ability to generate movement. […] Such a stimulatory action would predict increased ability to generate voluntary movement in Parkinson's patients showing decreased functionality of this brain area. Current treatments of Parkinson's disease also stimulate this brain area, but show significant side effects that may not be present in compounds of the invention. […] It is expected, therefore, that compounds of the invention would have clinical utility in the treatment of Parkinson's disease and other disorders in which there is a paucity of movement.
# Three to seven days before behavioral testing, each animal (245-350 g, N=57) was anesthetized with 50 mg/kg sodium pentobarbital and mounted in a Narishige stereotaxic apparatus. A guide cannula, constructed from 24 gauge thinwall stainless steel tubing, was implanted with its tip 4.0 mm above the left substantia nigra pars reticulata (coordinates: 3.2 mm anterior; 2.2 mm lateral; 4.7 mm ventral), from lambda and the skull surface. Cannulae were secured with stainless steel screws and dental acrylic. Stainless steel stylers kept the cannulae sealed except during drug infusion. All drugs were prepared on the day of testing. Animals were gently restrained and the drugs were administered in a volume of 0.5 ul over 72 seconds through a 31 gauge microneedle that was constructed to extend 4.0 mm beyond the tips of the guide cannulae. […] Animals received a single injection of saline (n=6), 1.5 nmol (n=5), 3.7 nmol (n=6), 9.3 nmol (n=7 or 14.9 nmol (n=5) in 0.5 ul 0.9% NaCl. Following injection, each animal was fitted with a harness which was connected to an optical position transducer interfaced to a compouter that derived the number and direction of half turns for 30 min. Each rat received a single injection of the test drug to minimize tissue damage. Rats were sacrificed by an overdose of sodium pentobarbital and perfused intracardially with 10% formalin. Brains were fixed in a 30% sucrose-formalin solution and coronal sections (40 um) were taken throughout the extent of the injection site. The sections were stained with cresyl violet and examined under a microscope to localize injection sites. Only subjects with histologically confirmed injection sites were used in the data analyses. For the studies of circling behavior, the number of net (contalateral-isolateral) rotations were computed for each rat and subjected to analysis of variance. […] Results showing contralateral circling behavior produced by intranigral microinjections of various doses of Compound #1 are reported in Table IV and illustrated in FIG. 1.
# Individual subjects are shown along with the average and standard deviation of the effect.
# sigma receptors = target: T2, sigma receptors (Cavia porcellus, UniProt Q60492); assay: Radioreceptor assay in guinea pig brain homogenate (P2 membranes), [3H]-(+)-3-PPP; type: binding
# T2 construct: crude synaptosomal (P2) membrane fraction of guinea pig brain for sigma receptors; tissue Pel-Freeze, Rogers, Ak; host or cells: guinea pig brain minus cerebellum, crude synaptosomal (P2) membranes
# T2 sequence (Q60492 whole entry): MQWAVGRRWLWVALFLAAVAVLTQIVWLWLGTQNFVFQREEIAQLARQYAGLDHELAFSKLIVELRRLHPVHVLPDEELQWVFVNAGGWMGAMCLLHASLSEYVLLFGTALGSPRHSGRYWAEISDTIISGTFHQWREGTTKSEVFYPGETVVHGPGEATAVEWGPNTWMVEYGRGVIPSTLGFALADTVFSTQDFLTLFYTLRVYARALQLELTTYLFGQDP
# T1 sequence (Q9R0C9 whole entry): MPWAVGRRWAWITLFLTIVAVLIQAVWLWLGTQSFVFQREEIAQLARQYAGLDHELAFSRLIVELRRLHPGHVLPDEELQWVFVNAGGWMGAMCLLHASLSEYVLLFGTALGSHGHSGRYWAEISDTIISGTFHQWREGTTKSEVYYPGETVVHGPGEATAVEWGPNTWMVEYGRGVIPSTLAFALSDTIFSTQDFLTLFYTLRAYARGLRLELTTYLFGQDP
compound,measurement,setting,value
1-(4-chlorophenyl)-2-[1-(4-fluorophenyl)piperidinyl]ethanol,NMDA receptor antagonism (in words),NMDA receptor,non-competitive NMDA receptor antagonists
"CN(CCc1ccc(Cl)c(Cl)c1)[C@@H]1CCCC[C@@H]1N1CCCC1 (racemic) [Compound No. 1, (±)-cis-N-[2-(3,4-dichlorophenyl)ethyl]-N-methyl-2-(1-pyrrolidinyl)cyclohexylamine]",Binding to sigma receptors (in words),sigma receptor,binds to sigma receptors
same,Ki,sigma receptor,230 ± 70 nM
same,"Net Turns, Average","substantia nigra; dose 1.49 nmol, Stan Dev 18.94",11.00 1/2 contralateral rotations ne
same,Net Turns (individual rat),substantia nigra; dose 1.49 nmol,25.00 1/2 contralateral rotations ne and 17.00 1/2 contralateral rotations ne and 5.00 1/2 contralateral rotations ne and 4.00 1/2 contralateral rotations ne and 38.00 1/2 contralateral rotations ne
same,"Net Turns, Average","substantia nigra; dose 3.72 nmol, Stan Dev = 7.87",18.33 1/2 contralateral rotations ne
same,Net Turns (individual rat),substantia nigra; dose 3.72 nmol,13.00 1/2 contralateral rotations ne and 23.00 1/2 contralateral rotations ne and 5.00 1/2 contralateral rotations ne and 28.00 1/2 contralateral rotations ne and 25.00 1/2 contralateral rotations ne and 16.00 1/2 contralateral rotations ne
same,"Net Turns, Average","substantia nigra; dose 9.3 nmol, Stan Dev 21.46",38.14 1/2 contralateral rotations ne
same,Net Turns (individual rat),substantia nigra; dose 9.3 nmol,28.00 1/2 contralateral rotations ne and 20.00 1/2 contralateral rotations ne and 46.00 1/2 contralateral rotations ne and 87.00 1/2 contralateral rotations ne and 30.00 1/2 contralateral rotations ne and 22.00 1/2 contralateral rotations ne and 34.00 1/2 contralateral rotations ne
same,"Net Turns, Average","substantia nigra; dose 14.9 nmol, Stan Dev = 27.08",31.00 1/2 contralateral rotations ne
same,Net Turns (individual rat),substantia nigra; dose 14.9 nmol,6.00 1/2 contralateral rotations ne and 58.00 1/2 contralateral rotations ne and 13.00 1/2 contralateral rotations ne and 61.00 1/2 contralateral rotations ne and 7.00 1/2 contralateral rotations ne and 75.00 1/2 contralateral rotations ne and 24.00 1/2 contralateral rotations ne and 4.00 1/2 contralateral rotations ne
same,Circling behavior compared to saline control,"substantia nigra; intranigral microinjection 1.5-14.9 nmol, F4,27=3.09, p=0.032","significant dose-related increases in circling behavior; also recorded: increasing doses of Compound #1 produce marked effects, which are statistically significant"
same,Doses producing circling compared with (+)-pentazocine,"substantia nigra; intranigral, (+)-pentazocine data published previously",doses lower than those necessary to produce the effect with (+)-pentazocine
same,Ki,sigma receptors,1.8 ± 0.4 nM
"CN(CCc1ccccc1)[C@@H]1CCCC[C@@H]1N1CCCC1 (racemic) [compound 9, (±)-cis-N-methyl-N-(2-phenylethyl)-2-(1-pyrrolidinyl)cyclohexylamine]",Ki,sigma receptors,113 ± 8 nM
"CN(CCc1ccc2ccccc2c1)[C@@H]1CCCC[C@@H]1N1CCCC1 (racemic) [compound 10, (±)-cis-N-methyl-N-[2-(β-naphthyl)ethyl]-2-(1-pyrrolidinyl)cyclohexylamine]",Ki,"sigma receptors; guinea pig brain P2 membranes, 3 nM [3H]-3-PPP, pH 8.0, 120 min, 25° C., units ± SEM, read-out: Ki",33 ± 5 nM
"CN(Cc1ccc(Cl)c(Cl)c1)[C@@H]1CCCC[C@@H]1N1CCCC1 (relative stereo) [compound 17, (±)-cis-N-[2-(3,4-dichlorophenyl)methyl]-N-methyl-2-(1-pyrrolidinyl)cyclohexylamine]",Ki,sigma receptors,1.2 ± 0.03 nM
"CN(CCc1ccc(Cl)c(Cl)c1)[C@H]1CCCC[C@H]1N1CCCC1 [Compound No. 7, 1S,2R-(-)-cis-N-[2-(3,4-dichlorophenyl)ethyl]-N-methyl-2-(1-pyrrolidinyl)cyclohexylamine]",Ki,sigma receptor,30 ± 10 nM
same,Ki,sigma receptors,1.3 ± 0.3 nM
"CCCN(CCc1ccc(Cl)c(Cl)c1)[C@@H]1CCCC[C@@H]1N1CCCC1 [compound 4, (1R,2S)-(-)-cis-N-[2-(3,4-dichlorophenyl)-ethyl]-N-(n-propyl)-2-(1-pyrrolidinyl)cyclohexylamine]",Ki,sigma receptors,56 ± 9.9 nM
"CCN(CCc1ccc(Cl)c(Cl)c1)[C@@H]1CCCC[C@@H]1N1CCCC1 [compound 5, (1R,2S)-(-)-cis-N-ethyl-N-[2-(3,4-dichlorophenyl)ethyl]-2-(1-pyrrolidinyl)cyclohexylamine]",Ki,sigma receptors,3.5 ± 1 nM
"CN(CCc1ccc2c(c1)OCO2)[C@H]1CCCC[C@H]1N1CCCC1 [compound 11, 1S,2R-(-)-cis-N-methyl-N-[2-(3,4-methylenedioxyphenyl)ethyl]-2-(1-pyrrolidinyl)cyclohexylamine]",Ki,sigma receptors,90 ± 20 nM
"CN(CCc1ccc2c(c1)OCO2)[C@@H]1CCCC[C@@H]1N1CCCC1 [compound 12, 1R,2S-(+)-cis-N-methyl-N-[2-(3,4-methylenedioxyphenyl)ethyl]-2-(1-pyrrolidinyl)cyclohexylamine]",Ki,sigma receptors,31 ± 0.05 nM
"CCN(CCc1ccc(Cl)c(Cl)c1)[C@H]1CCCC[C@H]1N1CCCC1 [compound 14, 1S,2R-(-)-cis-N-[2-(3,4-dichlorophenyl)ethyl]-N-ethyl-2-(1-pyrrolidinyl)cyclohexylamine]",Ki,sigma receptors,3.1 ± 0.55 nM
"CCCN(CCc1ccc(Cl)c(Cl)c1)[C@H]1CCCC[C@H]1N1CCCC1 [compound 16, 1S,2R-(-)-cis-N-[2-(3,4-dichlorophenyl)ethyl]-N-(1-propyl)-2-(1-pyrrolidinyl)cyclohexylamine]",Ki,sigma receptors,140 ± 17 nM
CC(C(O)c1ccc(O)cc1)N1CCC(Cc2ccccc2)CC1 (centres unmarked) [ifenprodil],NMDA receptor antagonism (in words),NMDA receptor,non-competitive NMDA receptor antagonists
